Drawing on PubChem BioAssay (NCI), this text covers TGI for ten molecules.

Assay in all cases: NCI anticancer screen, dose series, 48 h
Assay [1] has as its system CCRF-CEM leukemia.
Assay [2] deals with KM12 colon.
Assay [3] deals with MCF7 breast.
Assay [4] deals with SW-620 colon.
Assay [5] concerns ACHN renal.
For assay [6], the system named is CAKI-1 renal.
Assay [7] has as its system NCI-H226 lung.
Assay [8] concerns COLO 205 colon.
Assay [9] has as its system EKVX NSCLC.
Assay [10] deals with NCI-H522 lung.
Assay [11] relates to SF-268 CNS.
The test system of assay [12] is DU-145 prostate.
Assay [13] relates to SNB-19 CNS.
Assay [14] concerns MDA-MB-231 breast.
Assay [15] has as its system MOLT-4 leukemia.
Assay [16] deals with HOP-92 NSCLC.
For assay [17], the system named is T-47D breast.

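Five concentrations, 48 hours, 96-well plates. TGI is the concentration that stops growth completely.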

With `COc1ccccc1/C=C1/Sc2scc(CC(=O)Nc3ccccc3)[n+]2C1=O`, the TGI in [1] was 51.7 µM; in assay [2] it was over 100 µM; in assay [3], over 100 µM; in assay [4], over 100 µM; in assay [5] it was over 100 µM; in [6], over 100 µM. The TGI in assay [7] is 69.7 µM; in assay [8], 65.4 µM; in [9], over 100 µM; in assay [10] it was 73.4 µM; in assay [11] it was over 100 µM; in assay [12], over 100 µM. For the same molecule, the TGI is over 100 µM in assay [13], 70.8 µM in [14], 56.2 µM in assay [15] and 52.3 µM in assay [16].
With `Cc1ccc(S(=O)(=O)OCC23CCC(C4CC42)C2CC23)cc1` (stereo unspecified), the TGI in assay [1], in assay [4], in assay [5], in [6], in [7] and in assay [8] was over 100 µM each time. In addition, the TGI in assay [11], in assay [13], in assay [15] and in [16] was over 100 µM each time.
As to `CN(C)CCCn1c2c3ccccc3ccc2c2oc(=O)c3ccccc3c21`, the TGI in assay [1] was over 21.3 µM; in assay [2], 10.3 µM; in assay [17], over 100 µM; in assay [4] it was 7.95 µM; in assay [5] it was 15.7 µM; in [6] it was 27.6 µM. For the same molecule, the TGI was over 51.8 µM in assay [7]; 5.87 µM in assay [8]; 60.7 µM in assay [9]; 10.6 µM in assay [10]; 13.4 µM in assay [11]; 29.2 µM in assay [13]. For the same molecule, the TGI in assay [15] turned out to be 5.19 µM; in assay [16], 45.7 µM.
Consider `O=C(c1ccc(Cl)cc1)N(C(=S)N1CCN(c2ccccc2)CC1)c1ccccc1`, for which the TGI in assay [1], in assay [2], in assay [4], in assay [5], in assay [6] and in assay [7] was over 100 µM in each case. The TGI in assay [8], in [10], in [11], in [13], in [15] and in assay [16] was over 100 µM each time.
For `Cn1c2ccccc2n2c3ccccc3c(=S)c(C#N)c12`, the TGI in assay [1], in assay [2], in [3], in assay [4], in assay [5] and in assay [6] was over 100 µM each time. Further, the TGI in assay [7], in assay [9], in assay [10], in assay [11], in [12] and in [13] was over 100 µM in each case. In assay [15], this molecule registered a TGI of over 100 µM.
Take `COC(=O)[C@H]1ON2O[C@@H](O[C@H]3CCCC[C@@H]3C(C)(C)c3ccccc3)C[C@@H]3CC[C@H]1[C@@]32C`: the TGI in [1], in assay [2], in assay [3], in [17], in assay [4] and in [5] was over 100 µM each time. Further, the TGI in [6], in assay [7], in assay [8], in assay [9], in assay [10] and in assay [11] was over 100 µM throughout. The TGI in [12], in assay [15] and in assay [16] was over 100 µM each time.
In the case of `CCOP(=O)(OCC)C(Cc1ccccc1)N=C(c1ccccc1)c1ccccc1` (stereo unspecified), the TGI in assay [1] came out at 37.1 µM; in assay [2] it was 32.2 µM; in assay [3], 31.2 µM; in assay [17], 26.6 µM; in assay [4], 25.2 µM; in [5], 28.6 µM. In addition, the TGI in assay [6] worked out at 31.6 µM; in assay [7], 32.9 µM; in assay [8], 28.7 µM; in [9] it was 34.3 µM; in assay [10], 29.6 µM; in assay [11], 37.6 µM. Moreover, the TGI in assay [12] was determined as 36.3 µM; in assay [13] it was 32.3 µM; in assay [15], 25.8 µM; in [16], 27.5 µM.
`O=C1NC2(O)c3ccccc3C(=O)C2(O)N1c1ccccc1` (stereo unspecified): the TGI in [1], in assay [2], in assay [4], in assay [6], in assay [8] and in assay [9] was over 100 µM each time. The TGI in [10], in assay [11], in [13], in assay [15] and in assay [16] was over 100 µM throughout.
Consider `CC(C)(C)OC(=O)/C=C/C(=O)O/C=C/[N+](=O)[O-]`, for which the TGI in assay [1], in assay [2], in [3], in assay [4], in assay [5] and in assay [6] was over 100 µM throughout. The TGI in assay [7], in assay [8], in assay [9], in assay [10], in assay [11] and in assay [12] was over 100 µM in each case. Further, the TGI in assay [14] and in [16] was over 100 µM throughout.
As for `Cc1ccc(NNc2cc(=O)[nH]c(=O)[nH]2)cc1Cl`, the TGI was 62.4 µM in assay [1]; over 100 µM in [2]; 25.1 µM in assay [17]; 28.2 µM in assay [4]; 21.4 µM in [5]; 28.4 µM in [6]. For the same molecule, the TGI in [7] was over 100 µM; in assay [8] it was 30.6 µM; in assay [10], 32.8 µM; in assay [11], over 100 µM; in assay [12] it was over 100 µM; in [13] it was over 100 µM. Further, the TGI in assay [14] stood at 29.9 µM; in assay [15], 58.3 µM; in assay [16], 27.9 µM.
